The values below come from EP4186364A1, “ANTIMICROBIAL TREATMENT OF SUBSTRATES” (Livinguard AG, priority 2021, dated 2023).

Values after ≈ are worked out from the molar mass of the structure shown. Like-named read-outs stand apart in the source and are kept apart here.

In data set [1] the test system is Escherichia coli (E.coli). The data set can be described thus: Antimicrobial activity of a METAC solution (optical density OD600). The data set is classed as cell-based.
The conditions of data set [2]: at 20 °C; Column elution; cited from earlier work.
For data set [3] the following is noted: at 20 °C; Flask method; cited from earlier work.

Consider `C=C(C)C(=O)OCC[N+](C)(C)C.[Cl-]` [METAC, [2-(methacryloyloxy)ethyl]trimethylammonium chloride], for which the “METAC required to stop E.coli growth” value in data set [1] (METAC in solution, OD600, Fig. 8b) stood at 40 mg/mL. In addition, the antimicrobial activity entry in data set [1] (METAC monomer as such, not bound to a substrate) is given as “low antimicrobial activity”.
Consider `Cc1cc(C)c(C(=O)P(=O)(c2ccccc2)c2ccccc2)c(C)c1` [TPO, diphenyl(2,4,6-trimethylbenzoyl)phosphine oxide], for which the results for the water solubility in data set [2] and in data set [3] were 11.9 µg/mL (≈ 34.2 µM) and 3.3 µg/mL (≈ 9.47 µM), respectively.
